Source: patent publication US20250188410A1, “NICOTINAMIDE ADENINE DINUCLEOTIDE (NAD+) PRECURSORS, NAD PATHWAY SUBSTRATES COMPOSITIONS AND USES THEREOF” (Colossal Biosciences Inc., priority 2023, published 2025)
Values joined by “and” are separate entries in the source; they are usually repeats but may differ in a detail not shown here. Identical values can stand only once.

What was measured:
bovine embryos [1] = assay: Presumptive bESC colonies at day 25 by Alkaline Phosphatase staining (bESC derivation); type: cell-based; conditions: for number of presumptive bESC colonies (increase): IVF and PA groups, supplementation during the first seven days; for number of presumptive bESC colonies (increase) / # colonies per cm^2 / Average (# colonies per cm^2) / Fold vs Control (presumptive bESC colonies): day 25; for # colonies per cm^2 / Average (# colonies per cm^2) / Fold vs Control (presumptive bESC colonies) / Number of AP+ Colonies: IVF; for Number of AP+ Colonies: day 25, 12 well plate
Protocol: (§1) After identifying the NAD^+ precursor dosage, experiment 2 was performed. Embryos were cultured in in vitro culture medium (BO-IVC; IVF Biosciences) supplemented with NA or NMN for 7-14 days in air controlled atmosphere (5% CO2 and 5% O2) at 38.5° C. Embryos cultured with NAD^+ precursor were collected at the blastocyst stage (D7) and plated in co-culture with irradiated mouse embryonic fibroblast (MEF) and bovine ESCs medium ([…]) until day 25 for bovine ESCs Derivation: Timeline bESC Derivation: • D0-D7 Incubation of IVF-produced embryos in IVC supplemented with NAD^+ precursor for seven days. • D7 Plating of embryos for ESC derivation on medium […] on Cf1 MEF. Treatment with Y27632 for last 12 hours of culturing. • D14 Mechanically isolate the ICM and transfer to a new plate. […] NMN and Nicotinic Acid (NA, also known as Niacin) were used as the NAD^+ precursors in this experiment. On day 7 of supplementation, blastocysts were collected and plated on MEFs in a […] medium.

bovine embryos [2] = assay: Measurement of ICM and outgrowths for day 14 embryos before ICM isolation; type: cell-based; conditions: IVF embryos
Protocol: as §1

bovine embryos [3] = assay: Attachment rate of embryos at day 11 of culture on MEFs in bEPSCM (Experiment 2); type: cell-based
bovine embryos [4] = assay: Measurement of ICM and outgrowths for day 14 embryos before ICM isolation; type: cell-based; conditions: PA embryos
bovine embryos [5] = assay: Presumptive bESC colonies at day 25 by Alkaline Phosphatase staining (bESC derivation); type: cell-based; conditions: PA, replicate 1, 5 seed embryos; for # colonies per cm^2 / Average (# colonies per cm^2) / Fold vs Control (presumptive bESC colonies): day 25; for Number of AP+ Colonies: day 25, 12 well plate
bovine embryos [6] = assay: Early embryo development of bovine embryos in IVC medium supplemented with NAD+ precursor (Experiment 1); type: cell-based
Protocol: The NAD^+ precursors […] (NMN) or Nicotinic acid […] (NA) (SG; Sigma N7764) were supplemented into in vitro culture medium (BO-IVC; IVF Biosciences), and bovine embryos obtained by in vitro fertilization (IVF) or parthenogenetic activation (PA) were cultured for 7-14 days in air controlled atmosphere (5% CO2 and 5% O2) at 38.5° C. Embryo development was evaluated at day 3 (D3-cleavage rate), day 7 (D7−Blastocyst rate), and day 11 (D11−Hatching rate). In addition, the expansion of hatched blastocysts from day 11-13 was evaluated. Based on this testing (see in Experiment 1 below) suitable dosages of NAD^+ precursors were identified.
Different doses of NMN (125 to 1000 μM) were added to the IVC culture medium containing bovine embryos for up to 14 days. No effect of NAD^+ precursor presence was observed on the cleavage or blastocyst rates for all three replicates (see FIG. 1, FIG. 2A, FIG. 2B, and FIG. 3).

[7] = IVM or embryo culture media supplemented with NMN; cited from earlier work

Structure (SMILES) | number of presumptive bESC colonies (increase) (bovine embryos [1]) | # colonies per cm^2 (bovine embryos [1]; replicate 1, 1 seed embryo) | Average (# colonies per cm^2) (bovine embryos [1]; replicate 1, 1 seed embryo) | Fold vs Control (presumptive bESC colonies) (bovine embryos [1]; replicate 1, 1 seed embryo) | Number of AP+ Colonies (bovine embryos [1]; replicate 1, 1 seed embryo) | # colonies per cm^2 (bovine embryos [1]; replicate 2, 5 seed embryos) | Average (# colonies per cm^2) (bovine embryos [1]; replicate 2, 5 seed embryos) | Fold vs Control (presumptive bESC colonies) (bovine embryos [1]; replicate 2, 5 seed embryos) | Number of AP+ Colonies (bovine embryos [1]; replicate 2, 5 seed embryos) | AVG Fold (ICM/outgrowth) (bovine embryos [2]) | AVG ICM (bovine embryos [2]) | AVG Outgrowth (bovine embryos [2]) | % Attached (bovine embryos [3]; IVF embryos) | Fold vs Control (attachment rate) (bovine embryos [3]; IVF embryos) | % Attached (bovine embryos [3]; PA embryos) | Fold vs Control (attachment rate) (bovine embryos [3]; PA embryos) | AVG Fold (ICM/outgrowth) (bovine embryos [4]) | AVG ICM (bovine embryos [4]) | AVG Outgrowth (bovine embryos [4]) | # colonies per cm^2 (bovine embryos [5]) | other results
O=C(O)c1cccnc1 [NA, nicotinic acid (pyridine-3-carboxylic acid), reference compound] | increased by three times | 82 and 72.29 and 8 | 54.1 | 2.958 | 287 and 253 and 28 | 33.43 | 33.43 | 3.25 | 117 | 0.09417 | 76.27 μm | 905.9 μm | 100% | 1.33 | 60% | 3 | 0.1303 | 48.9 μm | 436.7 μm | 15.14 | Average (# colonies per cm^2) (bovine embryos [5]): 15.14; Fold vs Control (presumptive bESC colonies) (bovine embryos [5]): 2.944; Number of AP+ Colonies (bovine embryos [5]): 53
NC(=O)c1ccc[n+]([C@@H]2O[C@H](COP(=O)([O-])O)[C@@H](O)[C@H]2O)c1 [NMN, nicotinamide mononucleotide] | increased by three times | 11.14 and 16.29 and 10.86 | 12.76 | 0.6979 | 39 and 57 and 38 | 16.29 | 16.29 | 1.583 | 57 | 0.1124 | 58.38 μm | 645.2 μm | 100% | 1.33 | 60% | 3 | 0.1845 | 47.2 μm | 458.5 μm | 12 | cleavage rate (bovine embryos [6]; NMN 125 to 1000 μM in IVC culture medium, day 3, three replicates): No effect; blastocyst rate (bovine embryos [6]; NMN 125 to 1000 μM in IVC culture medium, day 7, three replicates): No effect; morphology of hatched blastocysts (bovine embryos [6]; supplementation in IVC, day 11 to day 13): beneficially impact; maturation or embryo development [7]: no effect; Average (# colonies per cm^2) (bovine embryos [5]): 12; Fold vs Control (presumptive bESC colonies) (bovine embryos [5]): 2.333; Number of AP+ Colonies (bovine embryos [5]): 42
